21 compounds from patent publication US8093273B2, “Flavanoids and isoflavanoids for the prevention and treatment of cardiovascular diseases” (Resverlogix Corp., priority 2004, dated 2012) can be followed below.

Usually melting point stands for the temperature of the solid-liquid transition.

One data set deals with human ApoA-I promoter. The data set is described as follows: ApoA-I promoter induction in Caco-2 intestinal cells (pAI.474-Luc luciferase reporter). Format: cell-based. As to conditions: Caco-2 cells, 15 μM, 48 hours incubation, luciferase activity vs control samples. Here is the method:
To examine the effects of compounds of the invention to increase ApoA-I expression, Caco-2 cells, an intestinal cell line derived from human epithelial intestinal cells, were grown under conditions recommended by the ATCC and summarized in United States Patent Application Publication No. 20040033480 (“Wong”), incorporated herein by reference.
Briefly, the promoter region of the gene encoding human ApoA-I was isolated and ligated upstream of the firefly luciferase gene to construct the reporter plasmid pAI.474-Luc. This reporter plasmid and pRSV-β-galactosidase (as a control for transfection efficiency) were co-transfected to Caco-2 cells. The Caco-2 cells were then incubated in a MEM selection media containing 20% fetal calf serum supplemented with G418 (final concentration: 0.5 mg/mL, Gibco) to give established strains that stably express from the reporter gene. The strains were seeded in 6-well culture plates and incubated for 48 hours at 37° C. under 5% carbon dioxide. Cells were starved for 24 hrs in MEM selection media containing 0.5% FBS. Then, a solution of a compound of the invention in DMSO or other appropriate solvent was added to the wells at a final concentration of 0 to 100 μM in MEM selection media containing 0.5% FBS.
After further incubation for 48 hours, the cells were harvested and lysed using Reporter Lysis Buffer (PROMEGA E3971), and 50 μL of luciferase assay reagent (PROMEGA E4550 Luciferase Reporter 1000 assay system) was added to measure luciferase activity with a luminometer (Fluoroskan Ascent FL from Thermo electron Corporation). Luciferase activity was normalized to lysate protein concentrations, measured using Bradford Reagent (BioRad Protein Assay reagent Cat #500-0006). The luciferase activity of cells treated with various concentrations of test compounds was compared to that of solvent control sample (i.e., solvent without any compound of the present invention added) and untreated control sample.
A general note: In a reporter assay the amount or activity of a reporter protein is the signal.

A further data set in a line: Caco-2 permeability. As to conditions: human. Format: in vitro ADME, human. The text has this:
The Caco-2 cell drug transport model is widely used for screening compounds in drug discovery to assess intestinal transport and predict absorption rates.
(Caco-2 cells form a polarised layer with tight junctions and transporters.)

Another data set has as its system hApoA-I transgenic mice. In words: hApoA-I transgenic mice, oral gavage for 14 days. It is filed as in vivo. The conditions noted are these: for change in vivo at 30 mg/kg / change in vivo at 10 mg/kg: Mus musculus, po, 336 h, relative to pretreatment, read-out: ApoA-I (% change); for change in vivo at 30 mg/kg: 30 mg/kg BID 14 days; for change in vivo at 10 mg/kg: 10 mg/kg BID 14 days. The text has this: To test whether the efficacy of compounds of the invention observed in vitro extended to an in vivo model, transgenic mice carrying multiple copies of the human ApoA-I gene (C57BI/6-tgn(apoa1)1 rub, Jackson Laboratory, Bar Harbor, Me.) were exposed to representative compounds of the invention. The exogenous human ApoA-I gene in these mice enables them to express the human ApoA-I protein under the control of this promoter.
Seven to eight week old male mice, transgenic for human ApoA-I were housed five per cage (10″×20″×8″ with aspen chip bedding) with pelleted Rodent chow [Purina 5001] and water available at all times. After an acclimation period of 1 week, animals were individually identified by numbering on tail and weighed. Mice were pre bled via the retro-orbital plexus, and 150 μl of blood was collected in 1.5 ml Eppendorf tube containing 1 μl of heparin and chilled on ice. Plasma was collected after centrifuging the whole blood at 14000 rpm [TOMY high speed micro-refrigerated centrifuge NTX-150] for 10 minutes at 4° C. and frozen at −80° C. Plasma was analyzed for: human ApoA-I by a human ApoA-I enzyme-linked Immunoassay [Direct Sandwich ELISA Calbiochem Cat#178422, Calbiochem Cat#178452, lot #B9076, Calbiochem Cat #178470 conjugated to Horse Radish Peroxidase (Cedarlane Cat#80220)]; total cholesterol [Ponte scientific reagents: # C7509-STD, #L7580-18, # C7510]; and triglyceride [Pointe Scientific Reagents: # 7532-STD, # L7580-18, #7532]. All samples were measured in triplicates and expressed as mg/dl. Mice were grouped based on the above plasma parameters and having an average body weight of 25 gm.
Two days following pre-bleed, mice were dosed by oral gavage daily for 14 days using a 20 gauge, 11/2″ curved disposable feeding needle [Popper & Sons]; when BID, mice were gavaged morning and afternoon (8 am and 5 pm); when SID mice were gavaged in morning (8 am). Compounds were prepared each day in vehicle. Test article(s), a positive control fenofibrate, and vehicle were dosed at volume of 5 mL/kg of body weight as a suspension (0.1 mL/20 g mouse). Fenofibrate was obtained commercially [SIGMA #F 6020]. Mice weights were recorded on day 1, 4, 7, 10, 12, and 15. On day 15, mice were weighed and fasted for 4 hours, sacrificed by inhalation of CO2 and blood was obtained via cardiac puncture (0.7-1.0 ml). Plasma was collected and frozen at −80° C. Samples were assayed for ApoA-I, total cholesterol, triglyceride and HDL-C by HPLC [Polaris 200 with an auto sampler Prostar 410 from Varian on a Superose 6 10/30 column from Amersham]. Samples were sent for NMR analysis [LipoScience] to identify particle size and subclass for lipoproteins. During necropsy, liver, brown fat, and the whole of small and large intestines were collected, cleaned with cold PBS and frozen at −80° C. for further analysis of compound levels. Variation between studies, in ApoA-I changes, was observed. Therefore, a relative comparison between individual(s) in the study groups was used.
4′-hydroxyflavone (10 mg/kg of body weight), 4-(4-oxo-4H-chromen-2-yl)phenyl nicotinate (Example 71) (10 mg/kg of body weight) and fenofibrate (100 mg/kg of body weight) were BID administered to hApoA-I transgenic mice daily for fourteen days by oral gavage in 0.5% Methylcellulose (w/v)/1% Tween 80 (w/v). Plasma was assayed for ApoA-I (FIG. 3A), HDL cholesterol and total cholesterol (FIG. 3B) and percent weight gain (FIG. 3C).
4′-hydroxyflavone (3 mg/kg of body weight), 4′-hydroxyflavone (10 mg/kg of body weight), 4′-hydroxyflavone (30 mg/kg of body weight), 2-(4-Hydroxy-phenyl)-pyrano[2,3-b]pyridin-4-one (10 mg/kg of body weight), and fenofibrate (100 mg/kg of body weight) were BID administered to hApoA-I transgenic mice daily for fourteen days by oral gavage in 0.5% methylcellulose (w/v)/1% Tween 80 (w/v). In this experiment plasma was assayed for ApoA-I. […]

Where [1] appears, read: in vitro Caco-2 intestinal transport model, read-out: % Transported Paap.
The mark [2] stands for this setting: Table 6 fourth group, Control 3 1.11.

Like-named read-outs stand apart in the source and are kept apart here.

Regarding `CC(=O)Oc1ccc(-c2cc(=O)c3ccccc3o2)cc1` [Example 72, 4-(4-oxo-4H-chromen-2-yl)phenyl acetate], the “ApoA-I Promoter Induction” value in the data set on human ApoA-I promoter is on record as “increased”. In “Caco-2 permeability” (Caco-2), the Papp is 2.65 ×10⁻⁶ cm/s.
For the compound `O=c1cc(-c2ccc(O)cc2)oc2cc(O)cc(O)c12` [5,7-dihydroxy-2-(4-hydroxyphenyl)-4H-chomen-4-one, reference compound], the Papp in “Caco-2 permeability” (setting [1]) amounted to 1.5 ×10⁻⁶ cm/s.
`Cc1cc(-c2cc(=O)c3cccnc3o2)ccc1O` [Example 38, 2-(4-hydroxy-3-methylphenyl)-4H-pyrano[2,3-b]pyridine-4-one] had a melting point of 300 to 302 °C. Further, in the data set on human ApoA-I promoter, the “ApoA-I Promoter Induction” value is reported as “increased”. Further, in “Caco-2 permeability” (Caco-2), the Papp turned out to be 0.596 ×10⁻⁶ cm/s.
With `O=c1cc(-c2ccc(O)cc2)oc2cccnc12` [Example 35, 2-(4-hydroxy-phenyl)-pyrano[3,2-b]pyridin-4-one], the “ApoA-I Promoter Induction” value with human ApoA-I promoter is given as “increase”. Further, the Papp in “Caco-2 permeability” (Caco-2) stood at 1.98 ×10⁻⁶ cm/s.
Regarding `CC(C)OC(=O)C(C)(C)Oc1ccc(C(=O)c2ccc(Cl)cc2)cc1` [fenofibrate, reference compound], in the data set with hApoA-I transgenic mice (Experiment A, 100 mg/kg BID, day 15, male mice), the “liver weight gain normalized to body weight, compared to vehicle” value was “significant increase”. In addition, the change in vivo at 30 mg/kg in the data set with hApoA-I transgenic mice (setting [2]) worked out at 68.9%; with hApoA-I transgenic mice (Table 6 second group, Control 1 3.42), 127%; in the data set on hApoA-I transgenic mice (Table 6 third group, Control 3 (6.32)), 74.4%.
Consider `O=c1cc(-c2ccccc2)oc2cc(O)cc(O)c12` [5,7-Dihydroxy-2-phenyl-4H-chromen-4-one, 5,7-Dihydroxy-2-phenyl-chromen-4-one, reference compound], for which, in the data set on human ApoA-I promoter, the “ApoA-I Promoter Induction” value is on record as “increased”. Further, in “Caco-2 permeability” (setting [1]), the Papp came to 0.122 ×10⁻⁶ cm/s.
In turn, `O=c1c(-c2ccc(O)cc2)coc2ncccc12` [Example 85, 3-(4-Hydroxyphenyl)-4H-pyrano[2,3-b]pyridine-4-one] gave a melting point of 262 to 264 °C. For the same compound, in the data set with human ApoA-I promoter, the “ApoA-I Promoter Induction” value is on record as “increased”.
With `COc1ccc2c(=O)cc(-c3ccc(O)cc3)oc2c1` [7-methoxy-2-(4-hydroxyphenyl)-4H-chromen-4-one, reference compound], in the data set “Caco-2 permeability” (setting [1]), the Papp worked out at 6.92 ×10⁻⁶ cm/s.
The compound `CC(=O)Oc1ccc(C2=CC(C)(C)c3ccccc3O2)cc1` [Example 69, 4-(4,4-Dimethyl-4H-chromen-2-yl)phenyl acetate] gave a melting point of 84 to 86 °C. Moreover, the “ApoA-I Promoter Induction” value with human ApoA-I promoter was “increased”.
Regarding `O=c1cc(-c2ccc(O)nc2)oc2ccccc12` [Example 48, 2-(6-Hydroxypyridin-3-yl)-chromen-4-one], the melting point lay in the range of 296 to 297 °C. Moreover, in the data set on human ApoA-I promoter, the “ApoA-I Promoter Induction” value was “no increase”. Also, the change in vivo at 10 mg/kg with hApoA-I transgenic mice (setting [2]) was determined as 4.94%.
Consider `O=c1cc(-c2ccc(O)cc2)oc2ncccc12` [2-(4-hydroxy-phenyl)-pyrano[2,3-b]pyridin-4-one], for which the “plasma ApoA-I, net % change over vehicle” value in the data set with hApoA-I transgenic mice (Experiment B, 10 mpk BID oral gavage, two weeks) is 3.75%.
For the compound `Oc1ccc(C2=COc3ccccc3O2)cc1` [Example 70, 4-(Benzo[b][1,4]dioxin-2-yl)phenol], the melting point fell in the range of 137 to 140 °C. Also, the “ApoA-I Promoter Induction” value with human ApoA-I promoter is on record as “increased”.
As to `COCc1c(-c2ccc(O)cc2)oc2ccccc2c1=O` [Example 26, 2-(4-Hydroxyphenyl)-3-(methoxymethyl)-4H-chromen-4-one], the melting point lay within 237 to 239 °C. Moreover, the “ApoA-I Promoter Induction” value in the data set on human ApoA-I promoter is listed as “increased”.
As to `O=c1cc(-c2ccc(O)cc2)[nH]c2ccccc12` [Example 51, 2-(4-Hydroxy-phenyl)-1H-quinolin-4-one], in the data set on human ApoA-I promoter, the “ApoA-I Promoter Induction” value was “no increase”. The change in vivo at 10 mg/kg with hApoA-I transgenic mice (Table 6 third group, Control 3 (F-101) (6.32)) worked out at 32.8%.
`Cn1c(-c2ccc(O)c(F)c2)cc2ncccc2c1=O` [Example 56, 7-(3-Fluoro-4-hydroxyphenyl)-6-methyl-1,6-naphthyridin-5(6H)-one] yielded a melting point of 182 to 184 °C. Further, the “ApoA-I Promoter Induction” value in the data set with human ApoA-I promoter was “no increase”.
`O=c1cc(-c2cc(F)c(O)c(F)c2)oc2ccccc12` [Example 6, 2-(3,5-difluoro-4-hydroxyphenyl)chromen-4-one]: the melting point is 275 to 276 °C. Moreover, in the data set “Caco-2 permeability” (Caco-2), the Papp came to 0.531 ×10⁻⁶ cm/s.
`O=c1cc(-c2ccc(O)cc2)oc2cnccc12` [Example 36, 2-(4-Hydroxyphenyl)pyrano[2,3-c]pyridin-4-one] yielded a melting point of 294 to 296 °C. For the same compound, the “ApoA-I Promoter Induction” value with human ApoA-I promoter is “increased”. For the same compound, the change in vivo at 10 mg/kg in the data set on hApoA-I transgenic mice (setting [2]) turned out to be 17%.
As for `COc1cccc2c(=O)[nH]c(-c3ccc(O)c(F)c3)cc12` [Example 59, 3-(3-Fluoro-4-hydroxyphenyl)-5-methoxyisoguinolin-1(2H)-one], the melting point fell in the range of 289 to 291 °C. Further, the “ApoA-I Promoter Induction” value in the data set on human ApoA-I promoter is reported as “increased”.
For `CC(=O)Oc1ccc(-c2cc(=O)c3cc(Br)cc([N+](=O)[O-])c3o2)cc1F` [Example 25, 4-(6-Bromo-8-nitro-4-oxo-4H-chromen-2-yl)-2-fluorophenyl acetate], in that order: 236.2 to 238.5 °C and “increased”.
For `O=c1cc(-c2ccc(O)cc2)oc2c1ccc[n+]2[O-]` [Example 31, 2-(4-Hydroxyphenyl)-4-oxo-4H-pyrano[2,3-b]pyridine 8-oxide], in that order: 314 to 315 °C and “no increase”.
Regarding `O=c1c(-c2ccc(O)cc2)coc2ccccc12` [Example 84, 3-(4-Hydroxyphenyl)-4H-chromen-4-one], the melting point is 237 to 238 °C. Besides, the “ApoA-I Promoter Induction” value in the data set on human ApoA-I promoter is “increased”.
